Results on seven compounds are retold here after PubChem BioAssay AID2060484 (Molecular Pharmacology Branch, DTP, NCI, 2025).

Several values for one entry are separate records, joined by “and”; a condition that tells them apart may be missing. Equal values may be shown once.

This assay deals with SUM149PT spheroids with HUVEC/MSC, viability. The experiment in a line: Anticancer human tumor SUM149PT cell line growth inhibition [GQUAD].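 On all read-outs here: spheroids exposed to drugs for seven days before readout.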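 On viability, T/C: percent viability relative to DMSO vehicle control taken as 100%.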 Conditions: for viability, T/C: stronger effect = lower value. The text has this:
DNA G-quadruplex Stabilizer Agents in Combinations in Complex Spheroids
A high-throughput screen of multi-cell type tumor spheroids was designed to identify active combinations of DNA G-quadruplex stabilizer agents and targeted small molecules. Complex spheroids include a stromal component modeled by human endothelial cells (HUVEC) and fibroblasts modeled by human mesenchymal stem cells (MSCs). The concentration ranges selected for each drug and investigational agent were based upon clinically achievable concentrations if the clinical Cmax of the agent was known.
Compounds. The drugs and investigational agents: pidnarulex (CX-5461; NSC782164), APTO-253 (NSC789042), BRACO-19 (NSC847499), peposertib (NSC802822), ceralasertib (NSC780249), elimusertib (NSC800525), camonsertib (NSC841442), AZD-1390 (NSC803789), olaparib (NSC753686), talazoparib (NSC767125), ART-558 (NSC835418), sotorasib (NSC818433), MRTX-1133 (NSC836407), SN-38 (NSC673596), topotecan (NSC609699), etoposide (NSC141540), doxorubicin (NSC123127), gemcitabine (NSC613327), 5-fluorouracil (NSC19893), paclitaxel (NSC125973), vemurafenib (NSC761431), panobinostat (NSC761190), R-306465 (JNJ-16241199; NSC773264), adavosertib (NSC754352), TP-3654 (NSC805149), carboplatin (NSC241240), KSQ-4279 (NSC840948), and staurosporine (NSC755774) were obtained from the National Cancer Institute (NCI) Developmental Therapeutics Program Chemical Repository (34). The FDA-approved anticancer drug set is available from the NCI Developmental Therapeutics Program. […] The stock solutions were prepared in dimethyl sulfoxide (DMSO, Sigma-Aldrich, St. Louis, MO, cat. D2650) at 800-fold the tested concentration and stored at -70 degrees C prior to their use. All drugs and investigational agents were tested over a range starting from a high concentration at or near the clinical Cmax and decreasing in half-log increments. If the clinical Cmax for an agent had not been determined, the highest concentration tested was 10 microM.
2.3 Cell Culture. All cells were maintained in an incubator at 37 degrees C and 5% CO2 with 95% humidity. The PDC lines were cultured according to standard operating procedures established by the NCI PDMR. All PDCs were thawed and cultured in Matrigel-coated flasks prepared with a working solution of 1X Ham's F-12 nutrient mix, without supplementation (Invitrogen, cat. 11765054), 100 U/mL penicillin-streptomycin (Invitrogen, cat. 15140122), and 2.5% Matrigel (Corning Inc., cat. 354248) for the first three passages. The 857933-349-R-J2-PDC line was cultured in 6C/Colon 1B media, which includes advanced DMEM/F-12 (Thermo Fisher Scientific, cat. 12634028), 10 mM HEPES (Thermo Fisher Scientific, cat. 15630080), 1X GlutaMAX supplement (Thermo Fisher Scientific, cat. 35050061), 0.1 mg/mL primocin (InvivoGen, cat. ant-pm-2), 10% defined fetal bovine serum, heat inactivated (HyClone Laboratories Inc., cat. SH30070.03HI), 50% L-WRN conditioned media (ATCC, cat. CRL-3276), 1.25 mM N-Acetyl-L-cysteine (Sigma-Aldrich, cat. A9165), 10 mM nicotinamide (Sigma-Aldrich, cat. N0636), 1X B-27 supplement (Thermo Fisher Scientific, cat. 17504044), 1X N-2 supplement (Thermo Fisher Scientific, cat. 17502048), 10 microM Y-27632 dihydrochloride (Tocris Bioscience, cat. 1254), and 50 ng/mL human EGF recombinant protein (Thermo Fisher Scientific, cat. PHG0311). The 485176-168-R4-J1-PDC line was cultured in Panc media, which includes all 6C/Colon 1B media components plus 100 ng/mL human FGF-10 (Thermo Fisher Scientific, cat. 100-26), 500 nM SB-431542 (Selleckchem, cat. S1067), and gastrin (Tocris, cat. 3006).
[…]

Setting [1] is: curve of first compound, second compound 0.0316 µM.
[2] abbreviates: curve of first compound, second compound 0.1 µM.
[3] abbreviates: curve of first compound, second compound 0.316 µM.
Setting [4] is: curve of first compound, second compound 1 µM.
The mark [5] stands for this setting: curve of first compound, second compound 3.16 µM.
[6] abbreviates: curve of first compound, second compound 10 µM.
Setting [7] is: second compound 0.0316 µM, first compound 0.0316 µM.
[8] abbreviates: second compound 0.0316 µM, first compound 0.1 µM.
Setting [9] is: second compound 0.0316 µM, first compound 0.316 µM.
The mark [10] stands for this setting: second compound 0.0316 µM, first compound 1 µM.
The mark [11] stands for this setting: second compound 0.0316 µM, first compound 3.16 µM.
Where [12] appears, read: second compound 0.0316 µM, first compound 10 µM.
The mark [13] stands for this setting: second compound 0.1 µM, first compound 0.0316 µM.
[14] abbreviates: second compound 0.1 µM, first compound 0.1 µM.
Setting [15] is: second compound 0.1 µM, first compound 0.316 µM.
[16] abbreviates: second compound 0.1 µM, first compound 1 µM.
[17] abbreviates: second compound 0.1 µM, first compound 3.16 µM.
The mark [18] stands for this setting: second compound 0.1 µM, first compound 10 µM.
[19] abbreviates: second compound 0.316 µM, first compound 0.0316 µM.
[20] abbreviates: second compound 0.316 µM, first compound 0.1 µM.
Where [21] appears, read: second compound 0.316 µM, first compound 0.316 µM.
Setting [22] is: second compound 0.316 µM, first compound 1 µM.
Setting [23] is: second compound 0.316 µM, first compound 3.16 µM.
[24] abbreviates: second compound 0.316 µM, first compound 10 µM.
[25] abbreviates: second compound 1 µM, first compound 0.0316 µM.
[26] abbreviates: second compound 1 µM, first compound 0.1 µM.
Where [27] appears, read: second compound 1 µM, first compound 0.316 µM.
The mark [28] stands for this setting: second compound 1 µM, first compound 1 µM.
The mark [29] stands for this setting: second compound 1 µM, first compound 3.16 µM.
[30] abbreviates: second compound 1 µM, first compound 10 µM.
Setting [31] is: second compound 3.16 µM, first compound 0.0316 µM.
[32] abbreviates: second compound 3.16 µM, first compound 0.1 µM.
Setting [33] is: second compound 3.16 µM, first compound 0.316 µM.
The mark [34] stands for this setting: second compound 3.16 µM, first compound 1 µM.
The mark [35] stands for this setting: second compound 3.16 µM, first compound 3.16 µM.
Setting [36] is: second compound 3.16 µM, first compound 10 µM.
Setting [37] is: second compound 10 µM, first compound 0.0316 µM.
Setting [38] is: second compound 10 µM, first compound 0.1 µM.
[39] abbreviates: second compound 10 µM, first compound 0.316 µM.
[40] abbreviates: second compound 10 µM, first compound 1 µM.
Where [41] appears, read: second compound 10 µM, first compound 3.16 µM.
Where [42] appears, read: second compound 10 µM, first compound 10 µM.

Turning to `C=CCn1c(=O)c2cnc(Nc3ccc(N4CCN(C)CC4)cc3)nc2n1-c1cccc(C(C)(C)O)n1`, the viability, T/C by setting is: (compound 0.0316 µM) 98.3% and 95.2% and 87.7%; (compound 0.1 µM) 73% and 67% and 53.4%; (compound 0.316 µM) 32% and 32.6% and 26.9%; (compound 1 µM) 20.9% and 19.1% and 16.4%; (compound 3.16 µM) 12.8% and 11.1% and 8.08%; (compound 10 µM) 8.94% and 7.14% and 6.33%. The IC50 (curve of compound) is 196 nM and 180 nM and 115 nM.

`CC(C)(O)C1CCC(Nc2ccc3ncc(-c4cccc(C(F)(F)F)c4)n3n2)CC1` (stereo not drawn): the viability, T/C is 98.3% and 102% and 86% (compound 0.0316 µM); 86.1% and 89.2% and 65.1% (compound 0.1 µM); 76.1% and 82.5% and 72.4% (compound 0.316 µM); 63.5% and 63.8% and 49.3% (compound 1 µM); 47.9% and 49% and 37.8% (compound 3.16 µM); 61.8% and 58% and 41.8% (compound 10 µM). For the same compound, under “curve of compound”, the IC50 is > 10000 nM and 1170 nM.

`COc1ncnc(C2CC2)c1-c1ncc2cnn(Cc3ccc(-c4nc(C(F)(F)F)cn4C(C)C)cc3)c2n1`: the viability, T/C (compound 0.0316 µM) is 97.5% and 104% and 97.6%; the viability, T/C (compound 0.1 µM) was 74.3% and 85.3% and 87.7%; the viability, T/C (compound 0.316 µM) was 88.8% and 90.9% and 90.6%; the viability, T/C (compound 1 µM) is 76% and 81.9% and 80.4%; the viability, T/C (compound 3.16 µM) is 89.2% and 95.1% and 95.5%; the viability, T/C (compound 10 µM) is 95.5% and 94.5% and 101%. Also, the 50% inhibitory concentration (IC50) (curve of compound) is > 10000 nM.

In the case of `Cc1[nH]c2ccc(F)cc2c1-c1nc2c3cccnc3c3ncccc3c2[nH]1`, the viability, T/C runs as follows: (compound 0.1 µM) 102% [middle of 12 runs]; (compound 0.316 µM) 104% [middle of 12 runs]; (compound 1 µM) 99% [middle of 12 runs]; (compound 10 µM) 98.4% [middle of 12 runs]. Further, the IC50 reads like this: (compound alone, run of 03/18/2024) > 10000 nM; (compound alone, run of 03/26/2024) > 10000 nM.

In the case of `O=C(NO)c1cnc(N2CCN(S(=O)(=O)c3ccc4ccccc4c3)CC2)nc1`, the viability, T/C is, setting by setting: (compound 0.0316 µM) 97.1% and 108% and 102%; (compound 0.1 µM) 86.9% and 95.1% and 86.5%; (compound 0.316 µM) 48.5% (2×) and 56.6%; (compound 1 µM) 0.52% and 2.34% and 1.78%; (compound 3.16 µM) 0.32% and 0.27% and 0.08%; (compound 10 µM) 0.29% and 0.71%. For the same compound, the IC50 (curve of compound) was 295 nM and 355 nM and 286 nM.

`CC1COCCN1c1cc(C2(O)CC3CCC(C2)O3)c2cnn(-c3ccn[nH]3)c2n1` (stereo not drawn) + CN(C)c1ccc(Nc2c3ccc(NC(=O)CCN4CCCC4)cc3nc3cc(NC(=O)CCN4CCCC4)ccc23)cc1: the IC50 turned out to be 82.7 nM under setting [1]; 85.2 nM under setting [2]; 74.5 nM under setting [3]; 65.1 nM under setting [4]; 56.7 nM under setting [5]; 59.9 nM under setting [6]. In addition, the viability, T/C under setting [7] was 84.2%; the viability, T/C under setting [8] was 43.3%; the viability, T/C under setting [9] is 27%; the viability, T/C under setting [10] is 25.3%; the viability, T/C under setting [11] was 31.2%; the viability, T/C under setting [12] was 20%. Besides, the viability, T/C is 77.4% under setting [13]; 45% under setting [14]; 31.4% under setting [15]; 25.1% under setting [16]; 27.5% under setting [17]; 18.4% under setting [18]. Further, the viability, T/C runs as follows: under setting [19], 68.8%; under setting [20], 42.7%; under setting [21], 30.8%; under setting [22], 27.8%; under setting [23], 24.2%; under setting [24], 19.6%. Moreover, the viability, T/C is, setting by setting: under setting [25], 68.2%; under setting [26], 39.5%; under setting [27], 23.4%; under setting [28], 26.6%; under setting [29], 21.5%; under setting [30], 19.5%. Besides, the viability, T/C was 62.3% under setting [31]; 38.5% under setting [32]; 24.3% under setting [33]; 22.6% under setting [34]; 22.6% under setting [35]; 15.6% under setting [36]. The viability, T/C is, setting by setting: under setting [37], 65.8%; under setting [38], 37.6%; under setting [39], 23.5%; under setting [40], 22.9%; under setting [41], 20.1%; under setting [42], 15.7%.

On to `COc1ccc([C@@H](O)c2cc(-c3ncnc4cc(N5CCOCC5)ccc34)c(F)cc2Cl)nn1` + CN(C)c1ccc(Nc2c3ccc(NC(=O)CCN4CCCC4)cc3nc3cc(NC(=O)CCN4CCCC4)ccc23)cc1, for which the IC50 by setting is: under setting [1], 1870 nM; under setting [2], 1170 nM; under setting [3], 1160 nM; under setting [4], 1020 nM; under setting [5], 960 nM; under setting [6], 844 nM. For the same compound, the viability, T/C is, setting by setting: under setting [7], 103%; under setting [8], 86%; under setting [9], 73.1%; under setting [10], 63%; under setting [11], 38.2%; under setting [12], 32.1%. The viability, T/C is, setting by setting: under setting [13], 89.1%; under setting [14], 92.2%; under setting [15], 80.6%; under setting [16], 52.4%; under setting [17], 34.3%; under setting [18], 28.8%. Also, the viability, T/C reads like this: under setting [19], 88.1%; under setting [20], 87.4%; under setting [21], 71.5%; under setting [22], 53.7%; under setting [23], 34.3%; under setting [24], 29.1%. Further, the viability, T/C under setting [25] is 91.5%; the viability, T/C under setting [26] is 82.8%; the viability, T/C under setting [27] is 77.2%; the viability, T/C under setting [28] was 50.3%; the viability, T/C under setting [29] is 31.8%; the viability, T/C under setting [30] was 29.2%. In addition, the viability, T/C is 82.6% under setting [31]; 80% under setting [32]; 75.3% under setting [33]; 46.8% under setting [34]; 33.7% under setting [35]; 22.9% under setting [36]. Further, the viability, T/C is, setting by setting: under setting [37], 79.9%; under setting [38], 78.8%; under setting [39], 73.1%; under setting [40], 44.2%; under setting [41], 31.4%; under setting [42], 20.7%.

The viability, T/C is the ratio of treated to control. Usually IC50 stands for the point on the concentration scale where inhibition reaches its midpoint.
